Data reported in patent US20260069693A1, “UROLITHINS AND T-CELL MEDIATED IMMUNE RESPONSE” (priority 2022, published 2026).

Tests used:
C. elegans = settings: cited from earlier work
APTK-induced tumors = assay: subcutaneous APTK tumors in Pink1-/- mice, UA diet; type: in vivo
Description: UA activates mitophagy in myocytes and hippocampal neurons via a Pink1/Parkin mediated stress-response (D'Amico et al., 2021). […] Moreover, UA stabilized Parkin protein expression (FIG. 4G). To functionally confirm the dependence of UA induced TSCM formation on Pink1/Parkin mediated mitophagy, the inventors activated Pink1^−/− T cells in the presence or absence of UA. Loss of Pink1 prevented the UA-induced lysosome formation as well as the decrease in mitochondrial content (FIG. 4H, I).
Tumors were minced and digested with Tumor & Tissue Dissociation Reagent (BD Horizon) for 30 min. The remaining organ pieces were filtered through a 70 μm cell strainer. Cells were then washed with PBS 1% BSA and 2 mM EDTA. Immune cells were enriched on a 30%/40%/75% Percoll gradient after a 1700 rpm 17 min centrifugation. Then, tumor immune filtrates or activated T cells were stained with Fixable Viability Dye-eF780 (65-0865-14; eBioscience), αCD45-FITC (30-F11; 11-0451-85; eBioscience), αCD11b-BV650 (M1/70; 56340; BD) α-CD11C-BV785 (HL3; 563735; BD), αLy6G-BV605 (53-6.7; 563005; BD), αLy6C-AF700 (HK1.4; 128024; Biolegend), αF4/80-PE (BM8; 12-4801-82, eBioscience), αPD-L1-PECy7 (MIH5; 25-5982-80, eBioscience); or with Fixable Viability Dye-eF780 (ebioscience), αCD45-BV786 (30-F11; 564225; BD), αCD4-BUV496 (GK1.5; 564667; BD), αCD8-BV605 (100744; Biolegend), αPD1-APC (J43; 17-9985-82; eBioscience), αTIM-3-PECy7 (RMT3-23; 119715; Biolegend), αCTLA4-PE (UC10-4B9; 106305; Biolegend) and αLag3-BV421 (C9B7W; 125221, Biolegend); or with Fixable Viability Dye-eF780 (eBioscience), αCD4-FITC (H129.19; 553650; BD), αCD8-APC (53-6.7; 17-0081-83; eBioscience), αCD44-AF400 (IM7; 103026; Biolegend), αCD62L-BV785 (MEL-14; 104440; Biolegend), αSca-1-PerCP-Cy5.5 (D7; 45-5981-82; eBioscience), αCD95-PE (Jo2; 554258; BD); or with Fixable Viability Dye-eF780 (eBioscience), αCD8-BV650 (53-6.7; 563234; BD), αCD4-BUV496 (GK1.5; 564667; BD), αCD127-APC (A7R34; 17-1271-82; eBioscience), αCD95-FITC (SA367H8; 152605; Biolegend), αCD44-AF400 (IM7; 103026; Biolegend), αCD62L-BV785 (MEL-14; 104440; Biolegend), αSca-1-PerCP-Cy5.5 (D7; 45-5981-82; eBioscience) followed by intracellular staining of αTCF1-PE (S33-966; 564217; BD), or PGC-1α (sc-518025; D-5; santa cruz), or αCyclinD1 (MA5-28534, DCS-6; Invitrogen) with transcription factor buffer set kit (BD Biosciences). To study cytokine expression, tumor immune infiltrates were stimulated ex vivo with 20 ng/ml PMA and 1 μg/ml Ionomycin (Sigma) for 3 h in T cell activation medium with Brefeldin A (Biolegend). For T cell in vitro activation experiments over several days, Brefeldin A was added to the medium for the last 3 hours.

T cells = assay: qPCR and RNA sequencing of stimulated T cells; type: cell-based, mice
Protocol: To explore the downstream events linking mitophagy to TSCM formation, the inventors performed RNA sequencing to globally assess differential gene expression in T cells exposed for 48 hours to either DMSO or UA in vitro. […] Indeed, when the inventors applied ICG001 to pharmacologically block TCF-1, UA-induced TSCM formation in vitro was abrogated (FIG. 5D-E).
In vitro activated T cells following the indicated treatments were collected followed by RNA isolation using the RNeasy kit (Qiagen). RNA quality and concentration were determined by Nanodrop spectrophotometer. Complementary DNA was generated using SuperScript II reverse transcriptase (ThermoFisher). A total reaction volume of 13 μl RNA was incubated with oligoDT and DNTP Mix (1 μl each) for 5 min at 65° C. The samples were allowed to cool down for 5 min on ice, and to each 4 μl of 5× First strand buffer, 1 μl DTT, 1 μl RNAseOUT™ and 1 μl Superscript II reverse transcriptase were added. Samples were incubated for 1 h at 42° C. Synthesized cDNA was 1:5 diluted in nuclease free water before being processed into gene expression analysis with the 96 wells StepOne real time PCR Machine (Applied biosystems) using 2× FastStart Universal SYBR Green Master Mix (Roche). CT values were normalized to the gene indicated in the respective figures. The following primers were used: […]
For RNA isolation of in vitro stimulated T cells, RNeasy mini kit (Qiagen) was used. 200 ng of total RNA was used to prepare the library for RNA sequencing. Coexpression patterns of genes associated with effector and memory cell fate, immune checkpoints, effector molecules, and adhesion/homing were chosen based on the literature as depicted in the main text. Data underwent z-score normalization for display as described previously (Xiong et al., 2020). Upstream regulator analysis was performed using Ingenuity pathway analysis software, using a cut-off log 2fold change of 1 and a p value of […].

[1] = cited from earlier work

## O=c1oc2cc(O)ccc2c2ccc(O)cc12 [UA, Urolithin A]
C. elegans
  lifespan: prolonged lifespan
  mitochondrial content: higher mitochondrial content
APTK-induced tumors; Pink1 deletion, UA-containing vs control diet
  tumor growth (tumor suppressive effect of UA): abrogated the tumor suppressive effect of UA
APTK-induced tumors; UA vs control diet
  TCF-1 expression in CD8+ TIL: did not exhibit differences
  exhaustion markers in CD8+ TIL: did not exhibit differences
APTK-induced tumors; UA vs control diet, PMA/Ionomycin
  ex vivo cytokine release of CD8+ TIL: did not exhibit differences
T cells
  transcription of several Wnt target genes: increased transcription
T cells; RNA sequencing, 48 h
  expression of Cd27, Ccr7 and adhesion genes: enhancing expression
  expression of effector fate associated genes Prdm1 and Id2: reduced expression
  expression of genes that code for immune checkpoints and effector molecules: reduced the expression
  genes involved in memory formation such as Tcf7, Bach2 and Bcl6: special enrichment
T cells; qPCR, 24 h, UA 50 μM
  Atg5 gene expression: significant upregulation
  Atg7 gene expression: significant upregulation
  Lamp2 gene expression: significant upregulation
  Pink1 gene expression: significant upregulation
  p62 gene expression: significant upregulation
[1]; Rodents fed with a UA-high diet
  muscle function: superior muscle function
[1]; UA-high diet
  muscle function in mice with Duchenne muscular dystrophy: recovery of muscle function
